Tests used:
[1] = target: WRN helicase (core helicase motif aa N517-P1238) (Homo sapiens (Human), UniProt Q14191); assay: WRN ATPase assay (ADP-Glo), DNA dependent ATP hydrolysis; type: biochemical; settings: 3 hours pre-incubation, 300 micromolar ATP, FLAP26 ssDNA; geometric means of at least 2 determinations
Source text: An ATPase assay was set up to measure the DNA dependent ATP hydrolysis activity of WRN helicase. This assay was used also to assess the inhibition properties of compounds of the invention on DNA dependent WRN ATPase activity.
The core helicase motif of the WRN protein (aa N517-P1238) was produced for this assay (protein production as described above). A 45 oligonucleotide sequence called “FLAP26” as described by Brosh et al., 2009, DOI: 10.1074/jbc.M111446200 ([…]; SEQ ID NO: 2) was purchased from IDT (Integrated DNA Technologies, Leuven, Belgium) and used as single strand DNA substrate. The ADP-Glo assay kit (Promega, Madison, WI) allowing the quantification of ADP produced in ATP hydrolysis reactions was used for setting up this assay. Time course experiments were first performed in order to determine the best enzymatic assay conditions (including buffer conditions, reaction time and concentrations of protein, ATP and DNA substrates). A typical reaction consists of 10 nM WRN protein, 0.2 nM FLAP26, and 300 micromolar ATP in the following assay buffer: 30 mM Tris pH7.5, 2 mM MgCl2, 0.02% BSA, 50 mM NaCl, 0.1% pluronic F127 prepared in DNAse free water.
To evaluate the inhibition properties of compounds of the invention, serial dilutions were prepared in DMSO (10 half log dilutions from a 10 mM DMSO solution). 50 nanoliters of each concentration was pre-incubated for 3 hours in a 384 small volume assay plate (Greiner #784075) with 2.5 microliters of a 20 nM WRN helicase protein in assay buffer with 600 micromolar ATP. Control wells were included with a “high control” (no inhibition), containing DMSO with no test compound, and “low controls” (maximal inhibition), containing buffer without protein. The reaction was started by addition of 2.5 microliters of FLAP26 at 0.4 nM and incubated for 30 minutes at room temperature. The reaction was stopped with the addition of 5 microliters of the first ADP-Glo reagent and incubated for one hour to remove the excess amount of ATP. Afterwards, 10 microliters of ATP detection reagent was added and incubated for an additional hour before reading. Luminescence output was recorded using Tecan 1000 reader, with 5 minutes delay before reading. Each concentration of compound was tested in duplicates in the assay plate.
Data analysis was carried out using an in-house developed software (Novartis Helios software application, Novartis Institutes for BioMedical Research, unpublished) using the methods described by Formenko et al., 2006, DOI: 10.1016/j.cmpb.2006.01.008. Following normalization of activity values for the wells to % inhibition (% inhibition=[(high control-sample)/(high control-low control)]×100), IC50 fitting was carried out from the duplicate determinations present on each plate according to [4]. Data analysis can also be carried out using commercially available software designed to derive IC50 values using 4-parameter fits (e.g. GraphPad Prism, XL fit). The reported IC50 values are the geometrical means of at least 2 independent replicates.

SW48 cells = assay: Proliferation assay SW48 (CellTiterGlo, 96 hours); type: cell-based; settings: Homo sapiens
Source text: (§1) The colon carcinoma cell lines SW48 (RRID: CVCL_1724), HCT 116 (RRID: CVCL_0291) and SNU-407 (RRID: CVCL_5058) were obtained from ATCC. The WRN-knockdown insensitive colon carcinoma cell line DLD-1 (RRID: CVCL_0248) was obtained from the Korean Cell Line Bank (KCLB), and used to generate a derivative in which the endogenous WRN gene copies were knocked out by CRISPR-mediated editing using standard CRISPR methods. The resulting cell line, DLD1-WRN-KO, was used to assess potential off-target compound effects.
(§2) SW48, SNU-407 and DLD1-WRN-KO cells were cultured in growth medium composed of RPMI-1640 (Amimed Cat #1-41F22-1), 2 mM L-Glutamine (Amimed Cat #5-10K50), 10 mM HEPES (Gibco Cat #15630-056), 1 mM sodium pyruvate (Amimed Cat #5-60F00-H), 1× Penicillin-Streptomycin (Amimed Cat #4-01F00-H) and 10% fetal calf serum (Amimed Cat #2-01F30-G, Lot #LB11566P). HCT 116 cells were cultured in growth medium composed of McCoys 5A (Amimed catalog #1-18F01-1), 2 mM L-Glutamine (Amimed Cat #5-10K50), 1× Penicillin-Streptomycin (Amimed Cat #4-01F00-H) and 10% fetal calf serum (Amimed Cat #2-01F30-G, Lot #LB11566P). All cells were maintained at 37° C. in a humidified 5% CO2 incubator.
(§3) Following filtration through a Steriflip-NY 20 μm filter (Millipore Cat #SCNY00020), trypsinized cells were seeded in 100 microliters growth medium at 2′000 (SW48) or 1′500 (SNU-407, DLD1-WRN-KO, HCT 116) cells/well into white, clear-bottom 96-well plates (Costar Cat #3903). Three replicate plates were prepared for each compound treatment condition. In addition, one plate (termed “day 0”) was prepared to quantify the number of viable cells at the time of compound addition. Following overnight incubation at 37° C. in a humidified 5% CO2 atmosphere, eight 3-fold serial dilutions of a given compound stock (obtained at a concentration of 10 mM in DMSO and stored at 4° C.) were dispensed directly into each of the triplicate assay plates using a HP 300D non-contact Digital Dispenser (TECAN). The final concentration of DMSO was normalized to 0.1% in all wells. 96 hours after compound addition, cellular ATP levels as a surrogate for cell viability was assessed following addition of 50 microliters CellTiterGlo (Promega Cat #G7573) reagent and luminescence quantification on a MPLEX multi-mode plate-reader (TECAN) following a 10 minute incubation at room temperature. The number of viable cells in the “day 0” plate were quantified identically on the day of compound addition.
(§4) For data analysis, the assay background signal that was determined in wells containing medium, but no cells, was subtracted from all other data points prior to further calculations. The extent of growth inhibition and potential cell kill was assessed by comparing the ATP levels (measured using CellTiterGlo, Promega) in compound-treated cells with those present at the time of compound addition. To this end, the following conditional concept was programmatically applied in HELIOS, an in-house software applying a multi-step decision tree to arrive at optimal concentration response curve fits (Gubler et al, SLAS DOI: 10.1177/2472555217752140) to calculate % growth (% G) for each compound-treated well: % G=(T−V0)/V0))*100 when T<V0, and % G=(T−V0)/(V−V0)))*100 when T>V0, where V0 is the viability level at time of compound addition, while V and T represent vehicle-control and compound-treated viability levels, respectively, at the end of the compound incubation. 100%, 0% and −100% signify absence of growth inhibition, growth stasis, and complete cell kill, respectively. Compound concentrations leading to half-maximal growth inhibition (G150) and residual cell viability at the highest tested compound concentration (Data (cmax), expressed in percent) were routinely calculated. Data analysis can also be carried out using commercially available software designed to derive IC50 values using 4-parameter fits (e.g. GraphPad Prism, XL fit). […]

DLD1-WRN-KO cells = assay: Proliferation assay DLD1-WRN-KO (CellTiterGlo, 96 hours), off-target effects; type: cell-based; settings: Homo sapiens
Source text: as §1, §2, §3, §4

Chain of WRN helicase (core helicase motif aa N517-P1238) (Q14191 517-1238): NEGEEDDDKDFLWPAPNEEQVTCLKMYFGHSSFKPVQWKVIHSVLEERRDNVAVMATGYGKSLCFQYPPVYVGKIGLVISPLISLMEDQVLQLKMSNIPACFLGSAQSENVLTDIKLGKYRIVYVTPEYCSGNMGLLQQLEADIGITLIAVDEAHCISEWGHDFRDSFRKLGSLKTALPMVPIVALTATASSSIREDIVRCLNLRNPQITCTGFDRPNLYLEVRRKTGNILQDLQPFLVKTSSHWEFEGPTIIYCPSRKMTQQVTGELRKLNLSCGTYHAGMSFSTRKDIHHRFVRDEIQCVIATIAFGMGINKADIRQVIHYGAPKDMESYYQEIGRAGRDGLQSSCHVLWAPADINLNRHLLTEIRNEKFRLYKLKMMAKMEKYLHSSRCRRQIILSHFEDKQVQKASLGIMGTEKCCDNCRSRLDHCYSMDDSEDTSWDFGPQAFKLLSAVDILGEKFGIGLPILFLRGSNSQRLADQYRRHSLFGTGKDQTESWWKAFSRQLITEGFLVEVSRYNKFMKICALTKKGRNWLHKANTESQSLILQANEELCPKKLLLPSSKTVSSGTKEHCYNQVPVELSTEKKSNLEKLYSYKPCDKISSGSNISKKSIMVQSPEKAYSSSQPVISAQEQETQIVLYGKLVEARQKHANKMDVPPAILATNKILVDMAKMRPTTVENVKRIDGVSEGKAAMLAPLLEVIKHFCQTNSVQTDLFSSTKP

Row | IC50 [1] [µM] | GI50 (SW48 cells) [µM] | GI50 (DLD1-WRN-KO cells) [µM] | SMILES
1 | 0.04 | 0.01 | > 10 | Cc1cc(C(F)(F)F)ccc1NC(=O)[C@H]1C[C@@H](C)c2c(N3CCN(C(=O)c4nccc(F)c4O)CC3)c(=O)n3nc(C4=CCOCC4)nc3n21 [Example 16, (7R,9R)-2-(3,6-dihydro-2H-pyran-4-yl)-6-(4-(4-fluoro-3-hydroxypicolinoyl)piperazin-1-yl)-7-methyl-N-(2-methyl-4-(trifluoromethyl)phenyl)-5-oxo-5,7,8,9-tetrahydropyrrolo[1,2-c][1,2,4]triazolo[1,5-a]pyrimidine-9-carboxamide]
2 | 2 | 3 | > 10 | C[C@H]1C[C@@H](C(=O)Nc2ccc(C(F)(F)F)cc2Cl)n2c1c(N1CCN(C(=O)c3nccc(F)c3O)CC1)c(=O)n1nc(C3=CCOCC3)nc21 [Example 6B, (7S,9S)—N-(2-chloro-4-(trifluoromethyl)phenyl)-2-(3,6-dihydro-2H-pyran-4-yl)-6-(4-(4-fluoro-3-hydroxypicolinoyl)piperazin-1-yl)-7-methyl-5-oxo-5,7,8,9-tetrahydropyrrolo[1,2-c][1,2,4]triazolo[1,5-a]pyrimidine-9-carboxamide]
3 | 6 | 5 | > 10 | C[C@H]1C[C@@H](C(=O)Nc2ccc(C(F)(F)F)cc2Cl)n2c1c(N1CCN(C(=O)c3ncc4c(c3O)OCC4)CC1)c(=O)n1nc(C3=CCOCC3)nc21 [Example 5B, (7S,9S)—N-(2-chloro-4-(trifluoromethyl)phenyl)-2-(3,6-dihydro-2H-pyran-4-yl)-6-(4-(7-hydroxy-2,3-dihydrofuro[3,2-c]pyridine-6-carbonyl)piperazin-1-yl)-7-methyl-5-oxo-5,7,8,9-tetrahydropyrrolo[1,2-c][1,2,4]triazolo[1,5-a]pyrimidine-9-carboxamide]
4 | 0.1 | 0.5 | > 10 | Cc1ncnc(C(=O)N2CCN(c3c4n(c5nc(C6=CCOCC6)nn5c3=O)[C@@H](C(=O)Nc3ccc(C(F)(F)F)cc3Cl)C[C@@H]4C)C[C@H]2C)c1O [Example 18D, (7S,9R)—N-(2-chloro-4-(trifluoromethyl)phenyl)-2-(3,6-dihydro-2H-pyran-4-yl)-6-((R)-4-(5-hydroxy-6-methylpyrimidine-4-carbonyl)-3-methylpiperazin-1-yl)-7-methyl-5-oxo-5,7,8,9-tetrahydropyrrolo[1,2-c][1,2,4]triazolo[1,5-a]pyrimidine-9-carboxamide]
5 | 0.02 | 0.04 | > 10 | C[C@@H]1C[C@H](C(=O)Nc2ccc(C(F)(F)F)cc2Cl)n2c1c(N1CCN(C(=O)c3nccc(Cl)c3O)CC1)c(=O)n1nc(N3CCOCC3)nc21 [Example 1A, (7R,9R)-6-(4-(4-chloro-3-hydroxypicolinoyl)piperazin-1-yl)-N-(2-chloro-4-(trifluoromethyl)phenyl)-7-methyl-2-morpholino-5-oxo-5,7,8,9-tetrahydropyrrolo[1,2-c][1,2,4]triazolo[1,5-a]pyrimidine-9-carboxamide]
6 | 0.02 | 0.03 | > 10 | C[C@@H]1C[C@H](C(=O)Nc2ccc(C(F)(F)F)cc2Cl)n2c1c(N1CCN(C(=O)c3ncc4c(c3O)OCC4)CC1)c(=O)n1nc(C3=CCOCC3)nc21 [Example 5A, (7R,9R)—N-(2-chloro-4-(trifluoromethyl)phenyl)-2-(3,6-dihydro-2H-pyran-4-yl)-6-(4-(7-hydroxy-2,3-dihydrofuro[3,2-c]pyridine-6-carbonyl)piperazin-1-yl)-7-methyl-5-oxo-5,7,8,9-tetrahydropyrrolo[1,2-c][1,2,4]triazolo[1,5-a]pyrimidine-9-carboxamide]
7 | – | 0.01 | > 10 | Cc1ncnc(C(=O)N2CCN(c3c4n(c5nc(C6=CC(=O)OCC6)nn5c3=O)[C@@H](C(=O)Nc3ccc(C(F)(F)F)cc3Cl)C[C@H]4C)[C@H]3CC[C@@H]32)c1O [Example 25, (7R,9R)—N-(2-chloro-4-(trifluoromethyl)phenyl)-6-((1S,6S)-5-(5-hydroxy-6-methylpyrimidine-4-carbonyl)-2,5-diazabicyclo[4.2.0]octan-2-yl)-7-methyl-5-oxo-2-(6-oxo-3,6-dihydro-2H-pyran-4-yl)-5,7,8,9-tetrahydropyrrolo[1,2-c][1,2,4]triazolo[1,5-a]pyrimidine-9-carboxamide]
8 | > 100 | – | – | CC(=O)N1CCN(c2c3n(c4nc(-c5ccccc5)nn4c2=O)[C@H](C(=O)Nc2ccc(C(F)(F)F)cc2)CC3)CC1 [Example 22B, (S)-6-(4-acetylpiperazin-1-yl)-5-oxo-2-phenyl-N-(4-(trifluoromethyl)phenyl)-5,7,8,9-tetrahydropyrrolo[1,2-c][1,2,4]triazolo[1,5-a]pyrimidine-9-carboxamide]
9 | 44 | – | – | Cc1cc(C(F)(F)F)ccc1NC(=O)[C@@H]1CCc2c(N3CCN(C(=O)c4nccc(Cl)c4O)CC3)c(=O)n3nc(C4=CCOCC4)nc3n21 [Example 19B, (S)-6-(4-(4-chloro-3-hydroxypicolinoyl)piperazin-1-yl)-2-(3,6-dihydro-2H-pyran-4-yl)-N-(2-methyl-4-(trifluoromethyl)phenyl)-5-oxo-5,7,8,9-tetrahydropyrrolo[1,2-c][1,2,4]triazolo[1,5-a]pyrimidine-9-carboxamide]
